According to US20060014949A1 (SuperGen Inc., priority 2004, published 2006):

Columns and labels:
Assay type in all cases: physicochemical
[1] = Moisture sorption/desorption analysis (VTI SGA-100); details: for Weight % chg: Table 3
Procedure: Moisture sorption/desorption data were collected on a VTI SGA-100 Vapor Sorption Analyzer. Sorption and desorption data were collected over a range of 5 to 95% relative humidity (RH) at 10% RH increments under a nitrogen purge. Sodium chloride (NaCl) and polyvinylpyrrolidone (PVP) were used as the calibration standards. Equilibrium criteria used for analysis were less than 0.0100% weight change in 5 minutes, with a maximum equilibration time of 180 minutes if the weight criterion was not met. Data collected were not corrected for the initial moisture content of the samples.

[2] = Relative humidity stress experiments, XRPD after storage over saturated salt solutions; details: Sodium Chloride, 75.5 % RH @ 20° C., 27 days
Procedure: In relative humidity (RH) stress analysis, open vials containing solid samples were placed inside chambers containing saturated salt solutions along with a small amount of the undissolved salt. The chambers were sealed and allowed to stand at ambient temperature for several days. Samples were analyzed by X-ray powder diffraction (XRPD) immediately after removing the sample from the RH chamber. The RH values these salt solutions were obtained from an ASTM standard.

[3] = Thermogravimetric analysis (TGA); details: 25 to 150° C.; listed as A
Procedure: Thermogravimetric analysis (TGA) was carried out on TA Instruments TGA 2050 or 2950. The calibration standards were nickel and Alumel™. Samples were placed on a clean, aluminum sample pan, accurately weighed, and inserted into the TGA furnace. The samples were heated in nitrogen at a rate of 10° C./min, from 35° C. to a final temperature of 250° C.

[4] = Solid-state stress (compression, heating, grinding, storage) with XRPD form check; details: no solvent; Hydraulic Press 10,000 lbs 1 hour
Procedure: X-ray powder diffraction analyses were carried out on a Shimadzu XRD-6000 X-ray powder diffractometer using Cu Kα radiation having a wavelength of 1.5406 Å. The instrument is equipped with a fine-focus X-ray tube. The tube power was set by setting potential difference at 40 kV, and current 40 mA. The divergence and scattering slits were set at 1° and the receiving slit was set at 0.15 mm. Diffracted radiation was detected by a NaI scintillation detector. A theta-two theta continuous scan at 3°/min (0.4 sec/0.02° step) from 2.5 to 40 °2θ was performed. A silicon standard was analyzed each day to check the instrument alignment. Each sample was analyzed in a quartz sample holder. A variable temperature (VT-XRPD) experiment was performed on one form. The sample was prepared for analysis by pressing it into a variable temperature holder.

total weight loss in the region from 5 to 45% RH ([1]; 5 to 45% RH): about 0.1% | total weight gain from 5 to 95% RH ([1]; 5 to 95% RH, listed as form A): 7.3% | Weight % chg ([1]; desorption, RH 4.93 %, 24.89 deg C, 533.4 min): 7.1472% | Weight % chg ([1]; desorption, RH 15.15 %, 24.89 deg C, 524.9 min): 7.1528% | Weight % chg ([1]; desorption, RH 25.13 %, 24.88 deg C, 515.4 min): 7.1586% | Weight % chg ([1]; desorption, RH 35.12 %, 24.88 deg C, 504.8 min): 7.1671% | Weight % chg ([1]; desorption, RH 45.07 %, 24.87 deg C, 493.8 min): 7.1753% | Weight % chg ([1]; desorption, RH 55.14 %, 24.88 deg C, 480.8 min): 7.1837% | Weight % chg ([1]; desorption, RH 65.19 %, 24.88 deg C, 467.8 min): 7.1925% | Weight % chg ([1]; desorption, RH 75.49 %, 24.88 deg C, 454.8 min): 7.2022% | Weight % chg ([1]; desorption, RH 85.43 %, 24.89 deg C, 443.8 min): 7.2106% | Weight % chg ([1]; sorption, RH 5.14 %, 24.92 deg C, 27.9 min): −0.0698% | Weight % chg ([1]; sorption, RH 14.81 %, 24.92 deg C, 41.6 min): −0.0784% | Weight % chg ([1]; sorption, RH 24.88 %, 24.92 deg C, 51.2 min): −0.0804% | Weight % chg ([1]; sorption, RH 34.89 %, 24.92 deg C, 62.2 min): −0.0733% | Weight % chg ([1]; sorption, RH 44.86 %, 24.91 deg C, 82.2 min): −0.1004% | Weight % chg ([1]; sorption, RH 54.83 %, 24.91 deg C, 93.2 min): −0.0931% | Weight % chg ([1]; sorption, RH 64.82 %, 24.91 deg C, 107.7 min): −0.0775% | Weight % chg ([1]; sorption, RH 74.73 %, 24.91 deg C, 118.3 min): −0.0646% | Weight % chg ([1]; sorption, RH 84.63 %, 24.91 deg C, 304.2 min): 3.8389% | Weight % chg ([1]; sorption, RH 94.67 %, 24.90 deg C, 433.1 min): 7.2104% | Weight % chg ([1]; start, RH 1.46 %, 24.92 deg C, 0.0 min): 0.0000% | weight (water) lost upon equilibration to 5% RH ([1]; equilibration to 5% RH, listed as form A): 0.06% | RH above which moisture sorption begins ([1]; sorption cycle): above 75 % RH | XRPD result [2]: converts into form B | TGA Results: percent weight change from 25 to 150° C. [3]: <0.1% | XRPD Pattern [4]: did not induce a form change
SMILES: Nc1ncn([C@H]2C[C@H](O)[C@@H](CO)O2)c(=O)n1 [Form A]
solid form after moisture sorption/desorption analysis ([1]; after sorption/desorption cycle, listed as form A): retained during the desorption cycle as decitabine polymorph form B
